Drawing on PubChem BioAssay AID180 (DTP/NCI, 2004), this text covers T/C for ten molecules.

Structures are written as SMILES. Values joined by “and” are separate entries in the source; they are usually repeats but may differ in a detail not shown here. Equal entries are not always repeated.

The subject of the assay is BDF1 mice, Adenocarcinoma 755 s.c., tumor weight T/C. Description: NCI In Vivo Anticancer Drug Screen. Data for tumor model Adenocarcinoma 755 (subcutaneous) in B6D2F1 (BDF1) mice. To be noted: endpoint: mean tumor weight, higher = larger tumour. The procedure, abridged:
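Compound activity was tested in mice carrying transplanted tumors. Survival or tumor size was measured, and each value is the treated-group measurement divided by that of the vehicle-treated control group (T/C).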

Setting [1] is: dose: 62.0 mg/kg/injection, schedule: Q01DX011 (ip), vehicle: methylcellulose (MC).
The mark [2] stands for this setting: dose: 125.0 mg/kg/injection, schedule: Q01DX011 (ip), vehicle: methylcellulose (MC).

With `CC(=O)[C@@]12OC(C)(C)O[C@@H]1C[C@H]1[C@@H]3C[C@H](C)C4=CC(=O)CC[C@]4(C)[C@H]3CC[C@@]12C`, the T/C is 28 % of control (dose: 56.0 mg/kg/injection, schedule: Q01DX011 (sc), vehicle: steriod suspending solution); 34 % of control (dose: 62.0 mg/kg/injection, schedule: Q01DX011 (sc), vehicle: steriod suspending solution); 38 % of control (dose: 75.0 mg/kg/injection, schedule: Q01DX011 (sc), vehicle: steriod suspending solution); 46 % of control (dose: 113.0 mg/kg/injection, schedule: Q01DX011 (sc), vehicle: steriod suspending solution); 21 % of control (dose: 125.0 mg/kg/injection, schedule: Q01DX011 (sc), vehicle: steriod suspending solution); 18 % of control (dose: 150.0 mg/kg/injection, schedule: Q01DX011 (sc), vehicle: steriod suspending solution). Also, the T/C reads like this: (dose: 225.0 mg/kg/injection, schedule: Q01DX011 (sc), vehicle: steriod suspending solution) 24 % of control; (dose: 250.0 mg/kg/injection, schedule: Q01DX011 (sc), vehicle: steriod suspending solution) 17 % of control; (dose: 300.0 mg/kg/injection, schedule: Q01DX011 (sc), vehicle: steriod suspending solution) 15 % of control; (dose: 450.0 mg/kg/injection, schedule: Q01DX011 (sc), vehicle: steriod suspending solution) 35 % of control; (dose: 600.0 mg/kg/injection, schedule: Q01DX011 (sc), vehicle: steriod suspending solution) 14 % of control; (dose: 900.0 mg/kg/injection, schedule: Q01DX011 (sc), vehicle: steriod suspending solution) 16 % of control.

As for `O=C(Nc1ccc(C2=NCCN2)cc1)c1ccc(C(=O)Nc2ccc(C3=NCCN3)cc2)cc1`, the T/C was 122 % of control (dose: 3.3 mg/kg/injection, schedule: Q01DX011 (ip), vehicle: methylcellulose (MC)) and 113 % of control (dose: 6.5 mg/kg/injection, schedule: Q01DX011 (ip), vehicle: methylcellulose (MC)).

In the case of `OCn1cccn1`, the T/C (dose: 20.0 mg/kg/injection, schedule: Q01DX011 (ip), vehicle: other) was 68 % of control; the T/C (dose: 20.0 mg/kg/injection, schedule: Q01DX011 (ip), vehicle: saline) is 89 % of control; the T/C (dose: 40.0 mg/kg/injection, schedule: Q01DX011 (ip), vehicle: other) is 23 % of control; the T/C (dose: 40.0 mg/kg/injection, schedule: Q01DX011 (ip), vehicle: saline) was 45 % of control; the T/C (dose: 80.0 mg/kg/injection, schedule: Q01DX011 (ip), vehicle: other) is 2 % of control; the T/C (dose: 80.0 mg/kg/injection, schedule: Q01DX011 (ip), vehicle: saline) was 27 % of control. The T/C (dose: 160.0 mg/kg/injection, schedule: Q01DX011 (ip), vehicle: saline) is 2 % of control.

Consider `CS(=O)(=O)OCCCl`, for which the T/C is 80 % of control (dose: 20.88 mg/kg/injection, schedule: Q01DX011 (ip), vehicle: carboxymethylcellulose (CMC)); 80 % of control (dose: 28.73 mg/kg/injection, schedule: Q01DX011 (ip), vehicle: carboxymethylcellulose (CMC)); 52 % of control (dose: 40.25 mg/kg/injection, schedule: Q01DX011 (ip), vehicle: carboxymethylcellulose (CMC)); 117 % of control (dose: 41.75 mg/kg/injection, schedule: Q01DX011 (ip), vehicle: carboxymethylcellulose (CMC)); 97 % of control (dose: 83.5 mg/kg/injection, schedule: Q01DX011 (ip), vehicle: carboxymethylcellulose (CMC)); 88 % of control and 103 % of control (dose: 114.9 mg/kg/injection, schedule: Q01DX011 (ip), vehicle: carboxymethylcellulose (CMC)). For the same molecule, the T/C was 54 % of control (dose: 130.0 mg/kg/injection, schedule: Q01DX011 (ip), vehicle: carboxymethylcellulose (CMC)); 21 % of control (dose: 140.0 mg/kg/injection, schedule: Q01DX011 (ip), vehicle: carboxymethylcellulose (CMC)); 11 % of control (dose: 150.0 mg/kg/injection, schedule: Q01DX011 (ip), vehicle: carboxymethylcellulose (CMC)).

In the case of `CN(C)c1ccc2nc3ccc(=[N+](C)C)cc-3sc2c1`, the T/C is, setting by setting: (dose: 5.0 mg/kg/injection, schedule: Q01DX011 (ip), vehicle: carboxymethylcellulose (CMC)) 51 % of control; (dose: 5.24 mg/kg/injection, schedule: Q01DX011 (ip), vehicle: carboxymethylcellulose (CMC)) 69 % of control; (dose: 5.76 mg/kg/injection, schedule: Q01DX011 (ip), vehicle: carboxymethylcellulose (CMC)) 103 % of control; (dose: 10.0 mg/kg/injection, schedule: Q01DX011 (ip), vehicle: carboxymethylcellulose (CMC)) 99 % of control; (dose: 10.48 mg/kg/injection, schedule: Q01DX011 (ip), vehicle: carboxymethylcellulose (CMC)) 109 % of control; (dose: 11.53 mg/kg/injection, schedule: Q01DX011 (ip), vehicle: carboxymethylcellulose (CMC)) 97 % of control. In addition, the T/C was 113 % of control (dose: 20.0 mg/kg/injection, schedule: Q01DX011 (ip), vehicle: carboxymethylcellulose (CMC)); 100 % of control (dose: 20.95 mg/kg/injection, schedule: Q01DX011 (ip), vehicle: carboxymethylcellulose (CMC)); 123 % of control (dose: 25.0 mg/kg/injection, schedule: Q01DX011 (ip), vehicle: carboxymethylcellulose (CMC)); 103 % of control (dose: 30.0 mg/kg/injection, schedule: Q01DX011 (ip), vehicle: carboxymethylcellulose (CMC)); 104 % of control (dose: 35.0 mg/kg/injection, schedule: Q01DX011 (ip), vehicle: carboxymethylcellulose (CMC)); 68 % of control (dose: 40.0 mg/kg/injection, schedule: Q01DX011 (ip), vehicle: carboxymethylcellulose (CMC)).

For `CCCCn1nnc2c(N)nc(N)nc21`, the T/C was 123 % of control under setting [1]; 70 % of control under setting [2]; 56 % of control (dose: 225.0 mg/kg/injection, schedule: Q01DX011 (ip), vehicle: methylcellulose (MC)).

As for `CCOC(=O)C(C)(C)Br`, the T/C was 85 % of control (dose: 50.0 mg/kg/injection, schedule: Q01DX011 (ip), vehicle: methylcellulose (MC)); 107 % of control (dose: 100.0 mg/kg/injection, schedule: Q01DX011 (ip), vehicle: methylcellulose (MC)); 47 % of control (dose: 200.0 mg/kg/injection, schedule: Q01DX011 (ip), vehicle: methylcellulose (MC)); 18 % of control (dose: 400.0 mg/kg/injection, schedule: Q01DX011 (ip), vehicle: methylcellulose (MC)); 13 % of control (dose: 500.0 mg/kg/injection, schedule: Q01DX011 (ip), vehicle: methylcellulose (MC)).

In the case of `O=C(Nc1ccc(NC2=NCCN2)cc1)c1ccc(C(=O)Nc2ccc(NC3=NCCN3)cc2)cc1`, the T/C reads like this: (dose: 4.0 mg/kg/injection, schedule: Q01DX011 (ip), vehicle: saline) 96 % of control; (dose: 8.0 mg/kg/injection, schedule: Q01DX011 (ip), vehicle: saline) 85 % of control; (dose: 16.0 mg/kg/injection, schedule: Q01DX011 (ip), vehicle: saline) 83 % of control.

Take `Cn1cnc2nc[nH]c2c1=S`: the T/C is 64 % of control (dose: 25.0 mg/kg/injection, schedule: Q01DX011 (ip), vehicle: methylcellulose (MC)) and 75 % of control (dose: 75.0 mg/kg/injection, schedule: Q01DX011 (ip), vehicle: methylcellulose (MC)).

As to `CCc1c(Cl)nc(N)nc1Nc1ccccc1C`, the T/C was 115 % of control (dose: 15.0 mg/kg/injection, schedule: Q01DX011 (ip), vehicle: methylcellulose (MC)); 88 % of control under setting [1]; 114 % of control under setting [2]; 94 % of control (dose: 250.0 mg/kg/injection, schedule: Q01DX011 (ip), vehicle: methylcellulose (MC)).
